Key:
[1] = tested on: commensal microflora in the oral cavity; conditions: in vivo; cited from earlier work
[2] = tested on: L5178Y leukemia lymphoma mouse cells; conditions: cited from earlier work
[3] = tested on: chloroquine-resistant strain K1 of Plasmodium falciparum; conditions: in vitro; cited from earlier work
Staphylococcus aureus = conditions: in vitro; cited from earlier work
Candida albicans = conditions: in vitro; cited from earlier work
Pseudomonas aeruginosa = conditions: in vitro; cited from earlier work
Bacillus subtilis = conditions: in vitro; cited from earlier work
Escherichia coli = conditions: in vitro; cited from earlier work
Micrococcus luteus = conditions: in vitro; cited from earlier work
certain microorganisms = experiment: Comparative antimicrobial experiments, hydrogen peroxide alone vs enriched extract; assay type: cell-based; conditions: 0.05 wt % expressed as H2O2

[H]/N=C(\N/C(=N/[H])NCCCCCCNC(=N)NC(=N)Nc1ccc(Cl)cc1)Nc1ccc(Cl)cc1 [chlorhexidine]
effect on the commensal microflora in the oral cavity [1]: extremely harmful effect

COc1cc(O)c(-c2c(C)cc(O)c3c2C(=O)c2ccc([C@H]4c5cccc(O)c5C(=O)c5c(O)cc(C)c(-c6c(O)cc(OC)c(C(C)=O)c6O)c54)c(O)c2C3=O)c(O)c1C(C)=O [joziknipholone A]
effect against L5178Y cells [2]: moderate effect | effect against Plasmodium falciparum K1 [3]: exhibited an effect

COc1cc(O)c(-c2c(C)cc(O)c3c2C(=O)c2cccc(O)c2C3=O)c(O)c1C(C)=O [knipholone]
antimicrobial effect (Staphylococcus aureus): ineffective | antimicrobial effect (Candida albicans): ineffective | antimicrobial effect (Pseudomonas aeruginosa): ineffective | antimicrobial effect (Bacillus subtilis): ineffective | antimicrobial effect (Escherichia coli): ineffective | antimicrobial effect (Micrococcus luteus): ineffective

OO [hydrogen peroxide]
antimicrobial effect (certain microorganisms): did not yield the antimicrobial properties | effect on the commensal microflora in the oral cavity [1]: extremely harmful effect

— patent publication US8486459B2 (Cremer Oleo GmbH & Co. KG, priority 2011, dated 2013)
